Data published in ChEMBL document CHEMBL3085656, “A medicinal chemistry perspective for targeting histone H3 lysine-79 methyltransferase DOT1L” (J Med Chem, 2013).

How the values were obtained:
MV4-11 = test: cells; conditions: Homo sapiens
MOLM-13 = test: cells; conditions: Homo sapiens
cells [1] = conditions: Homo sapiens, MLL
cells [2] = conditions: Homo sapiens, MLL; remark: listed apart in the source
THP-1 = test: cells; conditions: Homo sapiens

EC50 (MV4-11) [nM] | EC50 (MOLM-13) [nM] | EC50 (cells [1]) [nM] | EC50 (cells [2]) [nM] | EC50 (THP-1) [nM] | SMILES
4 | 4 | 700 | 700 | 4 | CC(C)N(CCCNC(=O)Nc1ccc(C(C)(C)C)cc1)C[C@H]1O[C@@H](n2ccc3c(N)ncnc32)[C@H](O)[C@@H]1O
4 | 4 | – | – | 4 | CC(C)N(C[C@H]1O[C@@H](n2cnc3c(N)ncnc32)[C@H](O)[C@@H]1O)[C@H]1C[C@@H](CCc2nc3cc(C(C)(C)C)ccc3[nH]2)C1 [PINOMETOSTAT]
